Common to all, as to test: NCI anticancer screen, dose series, 48 h
Test [1] relates to HT29 colon.
The test system of test [2] is SK-MEL-5 melanoma.
The subject of test [3] is HL-60(TB) leukemia.
Test [4] has as its system SK-MEL-2 melanoma.
The test system of test [5] is HCC-2998 colon.
In test [6] the test system is OVCAR-4 ovarian.
Test [7] has as its system MOLT-4 leukemia.
In test [8] the test system is KM12 colon.
The test system of test [9] is HCT-15 colon.
For test [10], the system named is SF-539 CNS.

Structures are written as SMILES.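 96-well plates; 48 h exposure; 5 concentrations. Endpoints by linear interpolation between flanking doses. Not reached: highest tested concentration assigned. TGI: total growth inhibition.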

Experimental findings from PubChem BioAssay (NCI) are described below.

As for `CCO[C@]12CCC[C@H]1[C@@H]1C(=O)c3ccccc3C(=O)C1=C(C)O2`, the TGI in test [1] is more than 100 µM; in [2], more than 100 µM; in test [3], more than 100 µM; in test [4], more than 100 µM; in test [5], more than 100 µM; in test [6], 97.9 µM. The TGI in test [7], in test [8], in test [9] and in test [10] was more than 100 µM throughout.

Regarding `c1c2c(cc3c1OCO3)-c1cc3ccc4c(c3c[n+]1CC2)OCO4`, the TGI is more than 12.5 µM in test [1]; more than 5 µM in [2]; more than 4.93 µM in test [3]; more than 12.5 µM in test [4]; more than 12.5 µM in [5]; more than 12.5 µM in test [6]. Moreover, the TGI in test [7] was more than 12.5 µM; in test [8] it was more than 5.45 µM; in [9], 4.77 µM; in test [10], 3.12 µM.

On to `Oc1ccc(-c2nc3cc(F)ccc3s2)cc1`, for which the TGI in test [1] is 56.7 µM; in [2], 41.6 µM; in test [3], more than 100 µM; in test [4], 36.9 µM; in test [5] it was 28.3 µM; in test [6], 36.9 µM. Moreover, the TGI in test [7] is more than 100 µM; in test [8], 52.5 µM; in test [9] it was 68.2 µM.

Turning to `Cc1c2cc[n+](C)cc2c(C)c2c1oc1ccccc12`, the TGI in [1] was more than 77.1 µM; in test [2], 14.1 µM; in test [3], more than 73.2 µM; in [4] it was 15.8 µM; in [5], 12.3 µM; in [6], 21.8 µM. For the same compound, the TGI was 28.7 µM in test [7], 11.6 µM in [8], more than 100 µM in test [9] and 13 µM in test [10].

With `c1ccc([P+](c2ccccc2)(c2ccccc2)c2ccc(-c3ccc([P+](c4ccccc4)(c4ccccc4)c4ccccc4)cc3)cc2)cc1`, the TGI is 63.5 µM in test [1]; 3.32 µM in [2]; more than 100 µM in test [3]; 62 µM in test [4]; more than 100 µM in test [5]; 94.8 µM in [6]. In addition, the TGI in test [7], in [8], in [9] and in [10] was more than 100 µM each time.

As for `CCOC(=O)Nc1cc2c(c(N)n1)N=C(c1ccc3ccccc3c1)CN2`, the TGI in test [1] was 1.5 µM; in test [2], 4.69 µM; in test [3], more than 100 µM; in test [4] it was 5.15 µM; in test [5], 1.47 µM; in test [6] it was more than 64.6 µM. Moreover, the TGI in test [8] is 3.94 µM; in [9], more than 100 µM; in test [10], 0.427 µM.

In the case of `CCSc1nc(-c2cccs2)nc2ccc(I)cc12`, the TGI in [1], in [2], in test [3], in test [4], in test [5] and in test [6] was more than 100 µM in each case. Further, the TGI in [7], in [8], in test [9] and in [10] was more than 100 µM in each case.

Take `N=C(N)SCc1cccc([N+](=O)[O-])c1`: the TGI is 85.1 µM in test [1]; more than 100 µM in test [2]; 43.6 µM in test [3]; more than 73.7 µM in test [4]; more than 100 µM in [5]; more than 83.1 µM in test [6]. For the same compound, the TGI is more than 91.2 µM in [7], more than 31.6 µM in [8], more than 100 µM in [9] and 68.3 µM in test [10].

As to `O=C(NC(Cc1ccc(I)cc1)C(=O)O)c1ccc(Cl)cc1` (centres undefined), the TGI in [1], in test [2], in test [3], in test [4], in test [5] and in [6] was more than 100 µM in each case. Also, the TGI in test [7], in test [8], in test [9] and in test [10] was more than 100 µM each time.

Regarding `NCCNCCNc1ccc(NCCNCCN)c2c1C(=O)c1c(O)ccc(O)c1C2=O`, the TGI in test [1], in [2], in [5], in test [6], in [7] and in test [8] was more than 100 µM throughout. In addition, the TGI in test [9] and in test [10] was more than 100 µM in each case.

For `COc1cc([N+](=O)[O-])ccc1NC(=O)c1cccc([N+](=O)[O-])c1O`, the TGI was more than 100 µM in [1]; 31 µM in test [2]; 55.4 µM in [3]; 68 µM in test [4]; more than 100 µM in [5]; more than 100 µM in test [6]. In addition, the TGI in [7] is more than 100 µM; in test [8] it was more than 100 µM; in test [9] it was more than 100 µM; in test [10], 75.2 µM.

As to `Nc1nc(OCC2CCCCC2)c2[nH]cnc2n1`, the TGI was 48.5 µM in [1]; 67.2 µM in test [2]; 59.8 µM in [3]; 22.1 µM in test [4]; more than 67.8 µM in test [5]; 42.3 µM in test [6]. Moreover, the TGI was more than 68.8 µM in test [7], more than 100 µM in test [8], more than 100 µM in [9] and 45 µM in test [10].

Turning to `O=C1OC2(OC2c2ccc(Cl)cc2)c2ccccc21` (centres undefined), the TGI in test [1], in [3], in [4], in test [5], in [6] and in test [7] was more than 100 µM throughout. Further, the TGI in test [8], in [9] and in test [10] was more than 100 µM in each case.

Turning to `CN(C)c1ccc(/C=c2/c3ccccc3n3c2cc(NC(=O)NCCC[N+](C)(C)C)[n+]3C)cc1`, the TGI is more than 100 µM in test [1]; more than 100 µM in test [2]; more than 100 µM in [3]; more than 100 µM in test [4]; 50.1 µM in [6]; more than 100 µM in [7]. Further, the TGI in test [8], in test [9] and in test [10] was more than 100 µM in each case.
